{"source": "patent US8173631B2", "about": "“Cyclic amine compounds” (Daiichi Sankyo Company, Limited, priority 2008, dated 2012)"}
{"target": "T1, human calcium-sensing receptor (CaSR) (Homo sapiens, UniProt P41180)", "T1 construct": "expressed in transfected cells", "T1 sequence (P41180 20-1078)": "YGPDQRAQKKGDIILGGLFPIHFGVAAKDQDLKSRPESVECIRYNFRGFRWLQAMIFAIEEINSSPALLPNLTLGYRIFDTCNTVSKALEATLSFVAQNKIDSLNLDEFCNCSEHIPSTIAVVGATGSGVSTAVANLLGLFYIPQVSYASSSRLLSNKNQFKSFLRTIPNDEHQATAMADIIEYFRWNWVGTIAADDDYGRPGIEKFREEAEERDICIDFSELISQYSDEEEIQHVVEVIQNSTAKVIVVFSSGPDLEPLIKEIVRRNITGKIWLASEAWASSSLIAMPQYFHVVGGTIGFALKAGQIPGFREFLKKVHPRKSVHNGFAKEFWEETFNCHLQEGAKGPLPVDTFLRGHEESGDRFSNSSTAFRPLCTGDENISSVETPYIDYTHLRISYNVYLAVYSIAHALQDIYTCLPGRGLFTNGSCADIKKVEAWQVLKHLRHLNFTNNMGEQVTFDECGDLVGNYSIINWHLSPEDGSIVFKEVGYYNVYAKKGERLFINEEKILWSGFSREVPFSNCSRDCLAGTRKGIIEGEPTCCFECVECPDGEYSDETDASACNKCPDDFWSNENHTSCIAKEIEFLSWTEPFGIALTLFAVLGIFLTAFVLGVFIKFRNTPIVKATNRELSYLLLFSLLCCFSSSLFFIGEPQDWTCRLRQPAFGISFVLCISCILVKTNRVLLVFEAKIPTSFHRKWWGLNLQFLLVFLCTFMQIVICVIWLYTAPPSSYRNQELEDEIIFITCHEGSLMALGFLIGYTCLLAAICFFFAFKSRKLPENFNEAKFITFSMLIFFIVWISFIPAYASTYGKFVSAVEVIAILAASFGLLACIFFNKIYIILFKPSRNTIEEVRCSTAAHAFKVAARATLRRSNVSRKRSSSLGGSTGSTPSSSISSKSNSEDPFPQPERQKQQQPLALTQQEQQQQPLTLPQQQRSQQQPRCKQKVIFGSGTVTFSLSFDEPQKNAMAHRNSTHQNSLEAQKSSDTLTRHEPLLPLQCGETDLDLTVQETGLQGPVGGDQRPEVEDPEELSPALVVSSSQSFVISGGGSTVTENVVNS", "experiment": "Inhibitory activity on calcium-sensing receptor (CaSR), intracellular calcium increase as indicator (FLIPR, CHO/hCaSR)", "assay_type": "cell-based", "details": "CHO cells stably expressing human CaSR; inhibition of intracellular Ca increase induced by extracellular CaCl2", "protocol": "Evaluation of inhibitory activity on calcium-sensing receptor (CaSR) using intracellular calcium increase as an indicator\nThe preparation which is prepared by adding CHO/hCaSR to F12 medium (manufactured by Invitrogen) containing 10% fetal bovine serum to have 2×10^5 cells/mL was applied to a 384-well in an amount of 50 μL/well, and then incubated overnight in a CO2 incubator. The culture supernatant was completely removed, the assay buffer (20 mM HEPES, HBSS (Ca and Mg free) containing 2.5 mM probenecid, pH 7.4) containing Calcium 3 (manufactured by Molecular Devices), i.e., a fluorescent intracellular calcium indicator, was added thereto in an amount of 25 μL/well, and the mixture was maintained for 1 hour in a CO2 incubator. Meanwhile, Calcium 3 was prepared according to the protocol enclosed in FLIPR Calcium 3 Assay Kit (manufactured by Molecular Devices). After maintaining it for 1 hour, a solution in which the test compound is prepared to have 2.1 to 20,000 nM (final concentration of 1.05 to 10,000 nM) by an assay buffer was added thereto in an amount of 25 μL/well, and maintained for 15 minutes in a CO2 incubator. Then, the CaCl2 solution prepared to have […] by using the assay buffer was added in an amount of 25 μL/well, and the resulting intracellular Ca increase (i.e., fluorescence intensity) was measured over time using a fluorescence imaging plate reader (FLIPR, manufactured by Molecular Devices). From the data obtained, the difference between the fluorescence intensity before the addition of CaCl2 solution and the maximum fluorescence intensity after the addition of CaCl2 solution was calculated, and the 50% inhibition concentration (IC50) of the test compound was obtained.", "units": {"IC50": "µM"}}
{"molecule": "Cc1ccc(C[C@@H]2CCCN2C[C@@H](O)CO[C@H](C)c2ccccc2CCc2nn[nH]n2)cc1F", "note": "[Example 178, (2R)-1-[(2S)-2-(3-Fluoro-4-methylbenzyl)pyrrolidin-1-yl]-3-[(1R)-1-{2-[2-(2H-tetrazol-5-yl)ethyl]phenyl}ethoxy]propan-2-ol]", "IC50": "≤ 3.12"}
{"molecule": "Cc1ccc(C[C@@H]2CCCN2C[C@@H](O)CO[C@H](C)c2cc(F)cc(F)c2CCC(=O)O)cc1F", "note": "[Example 27]", "IC50": "≤ 3.34"}
{"molecule": "CCc1cc(C[C@@H]2CCCN2C[C@@H](O)CO[C@H](CC)c2cc(F)ccc2CCC(=O)O)ccc1Cl", "note": "[Example 105]", "IC50": "≤ 3.16"}
{"molecule": "CC[C@@H](OC[C@H](O)CN1CCC[C@H]1Cc1ccc(C)c(F)c1)c1cc(F)c(C)cc1CCCCC(=O)O", "note": "[Example 70]", "IC50": "≤ 3.09"}
{"molecule": "CCc1cc(C[C@@H]2CCCN2C[C@@H](O)CO[C@H](CC)c2cccc(C)c2CCC(=O)O)ccc1Cl", "note": "[Example 122]", "IC50": "≤ 3.19"}
{"molecule": "Cc1ccc(C[C@@H]2CCCN2C[C@@H](O)CO[C@H](C)c2ccccc2CCCCC(=O)O)cc1F", "note": "[Example 13, 5-{2-[(1R)-1-({(2R)-3-[(2S)-2-(3-Fluoro-4-methylbenzyl)pyrrolidin-1-yl]-2-hydroxypropyl}oxy)ethyl]phenyl}pentanoic acid]", "IC50": "≤ 3.39"}
{"molecule": "Cc1ccc(C[C@@H]2CCCN2C[C@@H](O)CO[C@H](C)c2cc(Cl)ccc2CCC(=O)O)cc1F", "note": "[Example 79]", "IC50": "≤ 3.35"}
{"molecule": "C[C@@H](OC[C@H](O)CN1CCC[C@H]1Cc1ccc(F)c(Cl)c1)c1ccccc1CCC(=O)O", "note": "[Example 83]", "IC50": "≤ 3.45"}
{"molecule": "Cc1ccc(C[C@@H]2CCCN2C[C@@H](O)CO[C@H](C)c2ccc(Cl)cc2CCC(=O)O)cc1F", "note": "[Example 78]", "IC50": "≤ 3.35"}
{"molecule": "Cc1cc(CCC(=O)O)c([C@@H](C)OC[C@H](O)CN2CCC[C@H]2Cc2ccc(Cl)c(Cl)c2)cc1F", "note": "[Example 175]", "IC50": "≤ 3.12"}
{"molecule": "Cc1ccc(C[C@@H]2CCCN2C[C@@H](O)CO[C@H](C)c2cccc(F)c2CCCCC(=O)O)cc1F", "note": "[Example 58]", "IC50": "≤ 3.27"}
{"molecule": "CC[C@@H](OC[C@H](O)CN1CCC[C@H]1Cc1ccc(Cl)c(Cl)c1)c1ccc(Cl)cc1CCC(=O)O", "note": "[Example 100]", "IC50": "≤ 3.03"}
{"molecule": "Cc1ccc(C[C@@H]2CCCN2C[C@@H](O)CO[C@H](C)c2cc(F)ccc2CCC(=O)O)cc1F", "note": "[Example 8, 3-{4-Fluoro-2-[(1R)-1-({(2R)-3-[(2S)-2-(3-fluoro-4-methylbenzyl)pyrrolidin-1-yl]-2-hydroxypropyl}oxy)ethyl]phenyl}propanoic acid]", "IC50": "≤ 3.47"}
{"molecule": "Cc1ccc(C[C@@H]2CCCN2C[C@@H](O)CO[C@H](C)c2ccc(F)cc2CCCCC(=O)O)cc1F", "note": "[Example 54]", "IC50": "≤ 3.27"}
{"molecule": "Cc1ccc(C[C@@H]2CCCN2C[C@@H](O)CO[C@H](C)c2cc(C(F)(F)F)ccc2CCCCC(=O)O)cc1F", "note": "[Example 60]", "IC50": "≤ 2.97"}
{"molecule": "CCC[C@@H](OC[C@H](O)CN1CCC[C@H]1Cc1ccc(C)c(F)c1)c1cccc(F)c1CCC(=O)O", "note": "[Example 63]", "IC50": "≤ 3.27"}
{"molecule": "C[C@@H](OC[C@H](O)CN1CCC[C@H]1Cc1ccc(Cl)c(F)c1)c1cccc(Cl)c1CCC(=O)O", "note": "[Example 153]", "IC50": "≤ 3.21"}
{"molecule": "CC[C@@H](OC[C@H](O)CN1CCC[C@H]1Cc1ccc(C)c(F)c1)c1cccc(OC)c1CCC(=O)O", "note": "[Example 46]", "IC50": "≤ 3.28"}
{"molecule": "CC[C@@H](OC[C@H](O)CN1CCC[C@H]1Cc1ccc(C)c(F)c1)c1ccc(Cl)cc1CCC(=O)O", "note": "[Example 95]", "IC50": "≤ 3.25"}
{"molecule": "C[C@@H](OC[C@H](O)CN1CCC[C@H]1Cc1ccc(Cl)c(Cl)c1)c1cc(F)ccc1CCC(=O)O", "note": "[Example 96]", "IC50": "≤ 3.21"}
{"molecule": "CC[C@@H](OC[C@H](O)CN1CCC[C@H]1Cc1ccc(Cl)c(Cl)c1)c1cc(F)c(F)cc1CCC(=O)O", "note": "[Example 117]", "IC50": "≤ 3.02"}
{"molecule": "CCc1cc(C[C@@H]2CCCN2C[C@@H](O)CO[C@H](CC)c2cc(F)c(C)cc2CCC(=O)O)ccc1Cl", "note": "[Example 119]", "IC50": "≤ 3.08"}
{"molecule": "CC[C@@H](OC[C@H](O)CN1CCC[C@H]1Cc1ccc(Cl)c(Cl)c1)c1cc(F)ccc1CCC(=O)O", "note": "[Example 104]", "IC50": "≤ 3.12"}
{"molecule": "CCC[C@@H](OC[C@H](O)CN1CCC[C@H]1Cc1ccc(C)c(F)c1)c1cccc(Cl)c1CCC(=O)O", "note": "[Example 125]", "IC50": "≤ 3.16"}
{"molecule": "CC[C@@H](OC[C@H](O)CN1CCC[C@H]1Cc1ccc(C)c(Cl)c1)c1cc(F)ccc1CCC(=O)O", "note": "[Example 134]", "IC50": "≤ 3.25"}
{"molecule": "Cc1cc(CCC(=O)O)c([C@@H](C)OC[C@H](O)CN2CCC[C@H]2Cc2ccc(Cl)c(F)c2)cc1F", "note": "[Example 148]", "IC50": "≤ 3.23"}
{"molecule": "Cc1ccc(C[C@@H]2CCCN2C[C@@H](O)CO[C@H](C)c2cc(F)c(F)cc2CCC(=O)O)cc1Cl", "note": "[Example 176]", "IC50": "≤ 3.23"}
{"molecule": "Cc1ccc(C[C@@H]2CCCN2C[C@@H](O)CO[C@H](C)c2ccccc2CCCCCCC(=O)O)cc1F", "note": "[Example 77]", "IC50": "≤ 3.2"}
{"molecule": "CC[C@@H](OC[C@H](O)CN1CCC[C@H]1Cc1ccc(Cl)c(F)c1)c1cccc(Cl)c1CCC(=O)O", "note": "[Example 143]", "IC50": "≤ 3.12"}
{"molecule": "CC[C@@H](OC[C@H](O)CN1CCC[C@H]1Cc1ccc(C)c(F)c1)c1cc(F)ccc1CCC(=O)O", "note": "[Example 43]", "IC50": "≤ 3.36"}
{"molecule": "Cc1ccc(C[C@@H]2CCCN2C[C@@H](O)COC(C)c2c(C)cccc2CCC(=O)O)cc1F", "note": "(stereo partly shown) [Example 32]", "IC50": "≤ 3.5"}
{"molecule": "C[C@@H](OC[C@H](O)CN1CCC[C@H]1Cc1ccc(Cl)c(F)c1)c1cc(F)cc(F)c1CCC(=O)O", "note": "[Example 133]", "IC50": "≤ 3.2"}
{"molecule": "Cc1ccc(C[C@@H]2CCCN2C[C@@H](O)CO[C@H](C)c2cccc(C)c2CCC(=O)O)cc1F", "note": "[Example 3, 3-{2-[(1R)-1-({(2R)-3-[(2S)-2-(3-Fluoro-4-methylbenzyl)pyrrolidin-1-yl]-2-hydroxypropyl}oxy)ethyl]-6-methylphenyl}propanoic acid]", "IC50": "≤ 3.5"}
{"molecule": "CC[C@@H](OC[C@H](O)CN1CCC[C@H]1Cc1ccc(C)c(Cl)c1)c1cccc(Cl)c1CCC(=O)O", "note": "[Example 142]", "IC50": "≤ 3.15"}
{"molecule": "CCC[C@@H](OC[C@H](O)CN1CCC[C@H]1Cc1ccc(C)c(F)c1)c1cccc(OC)c1CCC(=O)O", "note": "[Example 65]", "IC50": "≤ 3.19"}
{"molecule": "Cc1ccc(C[C@@H]2CCCN2C[C@@H](O)CO[C@H](C)c2cccc(OC(F)F)c2CCC(=O)O)cc1F", "note": "[Example 75]", "IC50": "≤ 3.14"}
{"molecule": "Cc1ccc(C[C@@H]2CCCN2C[C@@H](O)CO[C@H](C)c2ccccc2CCC(=O)O)cc1Cl", "note": "[Example 84]", "IC50": "≤ 3.48"}
{"molecule": "Cc1ccc(C[C@@H]2CCCN2C[C@@H](O)CO[C@H](C)c2cccc(Cl)c2CCC(=O)O)cc1F", "note": "[Example 80]", "IC50": "≤ 3.35"}
{"molecule": "CCc1cc(C[C@@H]2CCCN2C[C@@H](O)CO[C@H](CC)c2cccc(OC)c2CCC(=O)O)ccc1Cl", "note": "[Example 116]", "IC50": "≤ 3.09"}
{"molecule": "CCc1cc(C[C@@H]2CCCN2C[C@@H](O)CO[C@H](CC)c2ccc(Cl)cc2CCC(=O)O)ccc1Cl", "note": "[Example 101]", "IC50": "≤ 3.06"}
{"molecule": "CC[C@@H](OC[C@H](O)CN1CCC[C@H]1Cc1ccc(C)c(F)c1)c1cccc(F)c1CCC(=O)O", "note": "[Example 44]", "IC50": "≤ 3.36"}
{"molecule": "CCc1cc(C[C@@H]2CCCN2C[C@@H](O)CO[C@H](C)c2ccc(Cl)cc2CCC(=O)O)ccc1Cl", "note": "[Example 161]", "IC50": "≤ 3.15"}
{"molecule": "CC[C@@H](OC[C@H](O)CN1CCC[C@H]1Cc1ccc(C)c(F)c1)c1cc(Cl)ccc1CCC(=O)O", "note": "[Example 94]", "IC50": "≤ 3.25"}
{"molecule": "C[C@@H](OC[C@H](O)CN1CCC[C@H]1Cc1ccc(Cl)c(F)c1)c1cccc(F)c1CCC(=O)O", "note": "[Example 91]", "IC50": "≤ 3.32"}
{"molecule": "COc1cccc([C@@H](C)OC[C@H](O)CN2CCC[C@H]2Cc2ccc(C)c(F)c2)c1CCCCC(=O)O", "note": "[Example 42]", "IC50": "≤ 3.19"}
{"molecule": "CC[C@@H](OC[C@H](O)CN1CCC[C@H]1Cc1ccc(Cl)c(F)c1)c1ccc(Cl)cc1CCC(=O)O", "note": "[Example 137]", "IC50": "≤ 3.12"}
